# Results published in US20110166123A1, “NOVEL COMPOSITIONS AND METHODS OF USE” (priority 2008, published 2011).
# pEC50: −log10 of the molar value.
# System: human immunodeficiency virus type 1 (HIV-1)
# Assay: microbe, parasite or virus in culture
# Format: cell-based
# Conditions: Human immunodeficiency virus 1, HeLa, 48 h, HIV-1 luciferase reporter, HeLa cells, 48 hours after infection
row,Structure (SMILES),pEC50
1,"COc1cc2c(nc1Cc1cccc(Cl)c1F)c(=O)c(C(=O)O)cn2[C@H](CO)C(C)C [Example 8D, 6-(3-Chloro-2-fluoro-benzyl)-1-((S)-1-hydroxymethyl-2-methyl-propyl)-7-methoxy-4-oxo-1,4-dihydro-[1.5]naphthyridine-3-carboxylic acid]",< 7.00
2,"O=C(O)c1c[nH]c2cnc(Cc3cccc(Cl)c3)nc2c1=O [Example 10A, 2-(3-chlorobenzyl)-8-oxo-5,8-dihydropyrido[3,2-d]pyrimidine-7-carboxylic acid]",< 7.00
3,"CC(C)[C@@H](CO)n1cc(C(=O)O)c(=O)c2nc(Cc3cccc(Cl)c3F)c(O)nc21 [Example 11A, (S)-2-(3-chloro-2-fluorobenzyl)-3-hydroxy-5-(1-hydroxy-3-methylbutan-2-yl)-8-oxo-5,8-dihydropyrido[2,3-b]pyrazine-7-carboxylic acid]",< 7.00
4,"COc1nc2c(cc1CNc1c(F)cc(F)cc1F)c(=O)c(C(=O)O)cn2[C@H](CO)C(C)C [Example 12A, (S)-1-(1-hydroxy-3-methylbutan-2-yl)-7-methoxy-4-oxo-6-((2,4,6-trifluorophenylamino)methyl)-1,4-dihydro-1,8-naphthyridine-3-carboxylic acid]",< 7.00
5,COc1nc2c(cc1CNc1ccc(F)cc1F)c(=O)c(C(=O)O)cn2[C@H](CO)C(C)C [Example 12B],< 7.00
6,COc1nc2c(cc1CNc1ccc(F)cc1)c(=O)c(C(=O)O)cn2[C@H](CO)C(C)C [Example 12D],< 7.00
7,COc1nc2c(cc1CNc1cccc3c1CCCC3)c(=O)c(C(=O)O)cn2[C@H](CO)C(C)C [Example 12E],< 7.00
8,COc1nc2c(cc1CNC1CCCc3ccccc31)c(=O)c(C(=O)O)cn2[C@H](CO)C(C)C (some centres unmarked) [Example 12F],< 7.00
9,COc1nc2c(cc1CNCc1c(F)cc(F)cc1F)c(=O)c(C(=O)O)cn2[C@H](CO)C(C)C [Example 12G],< 7.00
10,COc1nc2c(cc1CN1CCc3ccccc3C1)c(=O)c(C(=O)O)cn2[C@H](CO)C(C)C [Example 12H],< 7.00
11,"COc1cc2c(cc1CNc1ccc(F)cc1)c(=O)c(C(=O)O)cn2[C@H](CO)C(C)C [Example 13A, (S)-6-((4-fluorophenylamino)methyl)-1-(1-hydroxy-3-methylbutan-2-yl)-7-methoxy-4-oxo-1,4-dihydroquinoline-3-carboxylic acid]",< 7.00
12,"COc1nc2c(cc1COc1c(F)cc(F)cc1F)c(=O)c(C(=O)O)cn2[C@H](CO)C(C)C [Example 14A, (S)-1-(1-hydroxy-3-methylbutan-2-yl)-7-methoxy-4-oxo-6-((2,4,6-trifluorophenoxy)methyl)-1,4-dihydro-1,8-naphthyridine-3-carboxylic acid]",< 7.00
13,COc1nc2c(cc1COc1ccc(F)cc1F)c(=O)c(C(=O)O)cn2[C@H](CO)C(C)C [Example 14B],< 7.00
14,"COc1cc2c(cc1COc1ccc(F)cc1)c(=O)c(C(=O)O)cn2[C@H](CO)C(C)C [Example 15A, (S)-6-((4-fluorophenoxy)methyl)-1-(1-hydroxy-3-methylbutan-2-yl)-7-methoxy-4-oxo-1,4-dihydroquinoline-3-carboxylic acid]",< 7.00
15,"CC(C)[C@@H](CO)n1cc(C(=O)O)c(=O)c2cc(Nc3cccc(Cl)c3F)ncc21 [Example 16A, (S)-6-(3-chloro-2-fluorophenylamino)-1-(1-hydroxy-3-methylbutan-2-yl)-4-oxo-1,4-dihydro-1,7-naphthyridine-3-carboxylic acid]",< 7.00
16,COc1nc2c(cc1-c1ccc(F)cc1)c(=O)c(C(=O)O)cn2[C@H](CO)C(C)C [Example 17A],< 7.00
17,COc1nc2c(cc1-c1ccc(Cl)c(F)c1)c(=O)c(C(=O)O)cn2[C@H](CO)C(C)C [Example 17B],< 7.00
18,COc1nc2c(cc1-c1cccc(Cl)c1F)c(=O)c(C(=O)O)cn2[C@H](CO)C(C)C [Example 17C],< 7.00
19,COc1nc2c(cc1-c1ccc(F)c(Cl)c1)c(=O)c(C(=O)O)cn2[C@H](CO)C(C)C [Example 17D],< 7.00
20,COc1nc2c(cc1-c1ccc(F)cc1F)c(=O)c(C(=O)O)cn2[C@H](CO)C(C)C [Example 17E],< 7.00
21,COc1nc2c(cc1-c1cccc(C#N)c1)c(=O)c(C(=O)O)cn2[C@H](CO)C(C)C [Example 17F],< 7.00
22,COc1nc2c(cc1-c1ccncc1)c(=O)c(C(=O)O)cn2[C@H](CO)C(C)C [Example 17G],< 7.00

row,Structure (SMILES),pEC50
1,COc1ccc(-c2cc3c(=O)c(C(=O)O)cn([C@H](CO)C(C)C)c3nc2OC)cn1 [Example 17H],< 7.00
2,COc1nc2c(cc1-c1cccc3ccccc13)c(=O)c(C(=O)O)cn2[C@H](CO)C(C)C [Example 17I],< 7.00
3,COc1nc2c(cc1-c1ccc(OCc3ccccc3)c(F)c1)c(=O)c(C(=O)O)cn2[C@H](CO)C(C)C [Example 17J],< 7.00
4,COc1nc2c(cc1-c1ccccc1OCc1ccccc1)c(=O)c(C(=O)O)cn2[C@H](CO)C(C)C [Example 17K],< 7.00
5,COc1nc2c(cc1-c1cccc(OCc3ccccc3)c1)c(=O)c(C(=O)O)cn2[C@H](CO)C(C)C [Example 17L],< 7.00
6,COc1nc2c(cc1N1CCc3cc(F)ccc3C1)c(=O)c(C(=O)O)cn2[C@H](CO)C(C)C [Example 17M],< 7.00
7,COc1nc2c(cc1N1CCc3ccc(F)cc3C1)c(=O)c(C(=O)O)cn2[C@H](CO)C(C)C [Example 17N],< 7.00
8,COc1nc2c(cc1N1CCCc3ccccc31)c(=O)c(C(=O)O)cn2[C@H](CO)C(C)C [Example 17O],< 7.00
9,"COc1cc2c(cc1CCc1ccc(F)cc1F)c(=O)c(C(=O)O)cn2[C@H](CO)C(C)(C)C [Example 18A, 6-[2-(2,4-Difluoro-phenyl)-ethyl]-1-((S)-1-hydroxymethyl-2,2-dimethyl-propyl)-7-methoxy-4-oxo-1,4-dihydro-quinoline-3-carboxylic acid]",< 7.00
10,"COc1nc2c(cc1CCc1ccc(F)cc1F)c(=O)c(C(=O)O)cn2[C@H](CO)C(C)C [Example 19, (S)-6-(2,4-difluorophenethyl)-1-(1-hydroxy-3-methylbutan-2-yl)-7-methoxy-4-oxo-1,4-dihydro-1,8-naphthyridine-3-carboxylic acid]",< 7.00
11,"COc1nc2c(cc1NCc1ccc(C)cc1)c(=O)c(C(=O)O)cn2[C@H](CO)C(C)C [Example 20A, (S)-1-(1-hydroxy-3-methylbutan-2-yl)-7-methoxy-6-(4-methylbenzylamino)-4-oxo-1,4-dihydro-1,8-naphthyridine-3-carboxylic acid]",< 7.00
12,"COc1nc2c(cc1NCc1cccc(Cl)c1F)c(=O)c(C(=O)O)cn2[C@H](CO)C(C)C [Example 20B, (S)-6-(3-chloro-2-fluorobenzylamino)-1-(1-hydroxy-3-methylbutan-2-yl)-7-methoxy-4-oxo-1,4-dihydro-1,8-naphthyridine-3-carboxylic acid]",< 7.00
13,"COc1nc2c(cc1NCc1cccc(F)c1F)c(=O)c(C(=O)O)cn2[C@H](CO)C(C)C [Example 20BB, (S)-6-(2,3-difluorobenzylamino)-1-(1-hydroxy-3-methylbutan-2-yl)-7-methoxy-4-oxo-1,4-dihydro-1,8-naphthyridine-3-carboxylic acid]",< 7.00
14,"COc1nc2c(cc1NCc1ccc(F)cc1)c(=O)c(C(=O)O)cn2[C@H](CO)C(C)C [Example 20C, (S)-6-(4-fluorobenzylamino)-1-(1-hydroxy-3-methylbutan-2-yl)-7-methoxy-4-oxo-1,4-dihydro-1,8-naphthyridine-3-carboxylic acid]",7.00 to 8.00
15,"COc1nc2c(cc1NCc1cc(F)ccc1F)c(=O)c(C(=O)O)cn2[C@H](CO)C(C)C [Example 20CC, (S)-6-(2,5-difluorobenzylamino)-1-(1-hydroxy-3-methylbutan-2-yl)-7-methoxy-4-oxo-1,4-dihydro-1,8-naphthyridine-3-carboxylic acid]",< 7.00
16,"COc1nc2c(cc1NCc1ccccc1F)c(=O)c(C(=O)O)cn2[C@H](CO)C(C)C [Example 20D, (S)-6-(2-fluorobenzylamino)-1-(1-hydroxy-3-methylbutan-2-yl)-7-methoxy-4-oxo-1,4-dihydro-1,8-naphthyridine-3-carboxylic acid]",7.00 to 8.00
17,"COc1nc2c(cc1NCc1cc(F)c(F)c(F)c1)c(=O)c(C(=O)O)cn2[C@H](CO)C(C)C [Example 20DD, (S)-1-(1-hydroxy-3-methylbutan-2-yl)-7-methoxy-4-oxo-6-(3,4,5-trifluorobenzylamino)-1,4-dihydro-1,8-naphthyridine-3-carboxylic acid]",< 7.00
18,"COc1nc2c(cc1NCc1cccc(F)c1)c(=O)c(C(=O)O)cn2[C@H](CO)C(C)C [Example 20E, (S)-6-(3-fluorobenzylamino)-1-(1-hydroxy-3-methylbutan-2-yl)-7-methoxy-4-oxo-1,4-dihydro-1,8-naphthyridine-3-carboxylic acid]",< 7.00
19,"COc1nc2c(cc1NCc1ccc(F)c(F)c1F)c(=O)c(C(=O)O)cn2[C@H](CO)C(C)C [Example 20EE, (S)-1-(1-hydroxy-3-methylbutan-2-yl)-7-methoxy-4-oxo-6-(2,3,4-trifluorobenzylamino)-1,4-dihydro-1,8-naphthyridine-3-carboxylic acid]",< 7.00
20,"COc1nc2c(cc1NCc1ccc(F)c(Cl)c1)c(=O)c(C(=O)O)cn2[C@H](CO)C(C)C [Example 20F, (S)-6-(3-chloro-4-fluorobenzylamino)-1-(1-hydroxy-3-methylbutan-2-yl)-7-methoxy-4-oxo-1,4-dihydro-1,8-naphthyridine-3-carboxylic acid]",< 7.00
21,"COc1nc2c(cc1NCc1cc(F)cc(F)c1F)c(=O)c(C(=O)O)cn2[C@H](CO)C(C)C [Example 20FF, (S)-1-(1-hydroxy-3-methylbutan-2-yl)-7-methoxy-4-oxo-6-(2,3,5-trifluorobenzylamino)-1,4-dihydro-1,8-naphthyridine-3-carboxylic acid]",< 7.00

# Same assay, conditions: Human immunodeficiency virus 1, HeLa, HIV-1 luciferase reporter, HeLa cells
row,Structure (SMILES),pEC50
1,"COc1nc2c(cc1COc1c(F)cc(F)cc1F)c(=O)c(C(=O)O)cn2[C@H](CO)C(C)C [Example 14A, (S)-1-(1-hydroxy-3-methylbutan-2-yl)-7-methoxy-4-oxo-6-((2,4,6-trifluorophenoxy)methyl)-1,4-dihydro-1,8-naphthyridine-3-carboxylic acid]",< 5.60
2,COc1nc2c(cc1COc1ccc(F)cc1F)c(=O)c(C(=O)O)cn2[C@H](CO)C(C)C [Example 14B],< 5.60

# Same assay, conditions: Human immunodeficiency virus 1, read-out: Rank, rank of EC50, HIV-1 luciferase reporter
row,Structure (SMILES),pEC50
1,"COc1nc2c(cc1COc1c(F)cc(F)cc1F)c(=O)c(C(=O)O)cn2[C@H](CO)C(C)C [Example 14A, (S)-1-(1-hydroxy-3-methylbutan-2-yl)-7-methoxy-4-oxo-6-((2,4,6-trifluorophenoxy)methyl)-1,4-dihydro-1,8-naphthyridine-3-carboxylic acid]",< 7.00
2,COc1nc2c(cc1COc1ccc(F)cc1F)c(=O)c(C(=O)O)cn2[C@H](CO)C(C)C [Example 14B],< 7.00
